# Source: ChEMBL document CHEMBL1201862, “PubChem BioAssay data set” (2004)
#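 Method: 48-hour compound exposure of cells in 96-well plates, five concentrations, linear interpolation of endpoints. At the GI50, growth is halved.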 Calls of active or inactive are those of the source. Cut-off read from the data, not from the text of the source: active = GI50 up to about 1.1 µM and inactive = higher.
# What was measured:
# Test in all cases: NCI anticancer screen, dose series, 48 h
# HT-29 = tested on: HT-29
# UO-31 = tested on: UO-31
# NCI-H522 = tested on: NCI-H522
# SK-MEL-2 = tested on: SK-MEL-2
# HCT-116 = tested on: HCT-116
# NCI-H460 = tested on: NCI-H460
# SF-268 = tested on: SF-268
# IGROV-1 = tested on: IGROV-1
# HCC 2998 = tested on: HCC 2998
# NCI-H23 = tested on: NCI-H23
# EKVX = tested on: EKVX
# K562 = tested on: K562
# SK-MEL-28 = tested on: SK-MEL-28
# UACC-257 = tested on: UACC-257
# SF-295 = tested on: SF-295
# OVCAR-3 = tested on: OVCAR-3
# T47D = tested on: T47D
# DU-145 = tested on: DU-145
# SR = tested on: SR
Structure (SMILES),GI50 (HT-29),GI50 (UO-31),GI50 (NCI-H522),GI50 (SK-MEL-2),GI50 (HCT-116),GI50 (NCI-H460),GI50 (SF-268),GI50 (IGROV-1),GI50 (HCC 2998),GI50 (NCI-H23),GI50 (EKVX),GI50 (K562),GI50 (SK-MEL-28),GI50 (UACC-257),GI50 (SF-295),GI50 (OVCAR-3),GI50 (T47D),GI50 (DU-145),GI50 (SR)
COc1ccc([C@@H]2OC(=O)C3C2C(=O)O[C@H]3c2ccc(OC)c(OC)c2)cc1OC (stereo partly specified),> 100 µM (inactive),> 100 µM (inactive),> 100 µM (inactive),> 100 µM (inactive),> 100 µM (inactive),> 100 µM (inactive),> 100 µM (inactive),> 100 µM (inactive),> 100 µM (inactive),> 100 µM (inactive),> 100 µM (inactive),> 100 µM (inactive),> 100 µM (inactive),> 100 µM (inactive),> 100 µM (inactive),> 100 µM (inactive),,,
O=[N+]([O-])C(=C1Nc2ccccc2N1)/C(Cl)=C(/Cl)N1CCOCC1,> 100 µM (inactive),> 100 µM (inactive),,> 100 µM (inactive),89.5 µM (inactive),> 100 µM (inactive),22.6 µM (inactive),,> 100 µM (inactive),29.3 µM (inactive),> 100 µM (inactive),43.3 µM (inactive),> 100 µM (inactive),> 100 µM (inactive),98.4 µM (inactive),26.7 µM (inactive),15.1 µM (inactive),,
CC(=O)c1sc2c(c1OC(=O)c1cccs1)c(=O)n(-c1ccccc1)c(=S)n2-c1ccccc1,3.21 µM (inactive),,0.359 µM (active),,16.9 µM (inactive),12.3 µM (inactive),6.07 µM (inactive),18.6 µM (inactive),39.4 µM (inactive),19.3 µM (inactive),25.1 µM (inactive),35.4 µM (inactive),2.99 µM (inactive),11.7 µM (inactive),2.62 µM (inactive),23 µM (inactive),15.9 µM (inactive),26.8 µM (inactive),
OCCN(CO)CO,> 100 µM (inactive),> 100 µM (inactive),> 100 µM (inactive),> 100 µM (inactive),> 100 µM (inactive),> 100 µM (inactive),> 100 µM (inactive),> 100 µM (inactive),> 100 µM (inactive),> 100 µM (inactive),> 100 µM (inactive),> 100 µM (inactive),> 100 µM (inactive),> 100 µM (inactive),> 100 µM (inactive),> 100 µM (inactive),> 100 µM (inactive),> 100 µM (inactive),
O=C1C=CC2CCC1C2 (stereo unspecified),32.3 µM (inactive),31.2 µM (inactive),17.7 µM (inactive),21.4 µM (inactive),23.4 µM (inactive),30.6 µM (inactive),20.2 µM (inactive),53.3 µM (inactive),30.1 µM (inactive),20.6 µM (inactive),> 100 µM (inactive),27.4 µM (inactive),23.5 µM (inactive),46.8 µM (inactive),44.2 µM (inactive),43.1 µM (inactive),19.9 µM (inactive),34.2 µM (inactive),
CC1=CC(=O)/C(=C/Nc2nc(-c3ccc([N+](=O)[O-])cc3)cs2)C(=O)O1,> 100 µM (inactive),> 100 µM (inactive),31.6 µM (inactive),> 100 µM (inactive),> 100 µM (inactive),> 100 µM (inactive),> 100 µM (inactive),> 100 µM (inactive),> 100 µM (inactive),> 100 µM (inactive),> 100 µM (inactive),> 100 µM (inactive),,> 100 µM (inactive),> 100 µM (inactive),,> 100 µM (inactive),> 100 µM (inactive),
S=c1oc(CCCCCCCCc2nn(CNc3ccc(Cl)cc3)c(=S)o2)nn1CNc1ccc(Cl)cc1,> 100 µM (inactive),97.3 µM (inactive),> 100 µM (inactive),> 100 µM (inactive),> 100 µM (inactive),> 100 µM (inactive),> 100 µM (inactive),> 100 µM (inactive),> 100 µM (inactive),99.3 µM (inactive),> 100 µM (inactive),6.89 µM (inactive),20.3 µM (inactive),40 µM (inactive),4.92 µM (inactive),,,> 100 µM (inactive),
C=C1C(=O)[C@]23[C@H](O)[C@H]1CC[C@H]2[C@@]12CO[C@@]3(O)C[C@@H]1C(C)(C)CC[C@@H]2O [MEGATHYRIN A],6.21 µM (inactive),13.8 µM (inactive),3.63 µM (inactive),,5.21 µM (inactive),,6.34 µM (inactive),7.14 µM (inactive),8.69 µM (inactive),7.4 µM (inactive),9.79 µM (inactive),7.41 µM (inactive),7.14 µM (inactive),6.01 µM (inactive),12.3 µM (inactive),11.5 µM (inactive),,9.53 µM (inactive),7.55 µM (inactive)
O=C1c2ccccc2-c2cc([N+](=O)[O-])c([N+](=O)[O-])cc21,1.91 µM (inactive),1.67 µM (inactive),1.05 µM (active),1.87 µM (inactive),1.94 µM (inactive),1.51 µM (inactive),2.18 µM (inactive),1.49 µM (inactive),,1.91 µM (inactive),2.04 µM (inactive),2.16 µM (inactive),2.9 µM (inactive),1.41 µM (inactive),1.65 µM (inactive),,0.748 µM (active),1.77 µM (inactive),0.13 µM (active)
COc1ccc(OC)c(N2C(=O)CSC2c2cc(OC)c(OC)c(OC)c2)c1 (stereo unspecified),> 100 µM (inactive),> 100 µM (inactive),40.6 µM (inactive),> 100 µM (inactive),> 100 µM (inactive),> 100 µM (inactive),> 100 µM (inactive),> 100 µM (inactive),> 100 µM (inactive),> 100 µM (inactive),> 100 µM (inactive),83.8 µM (inactive),> 100 µM (inactive),89.5 µM (inactive),> 100 µM (inactive),> 100 µM (inactive),,> 100 µM (inactive),46 µM (inactive)
COc1ccc(/C=C/C(=O)CC(=O)/C=C/c2ccc(OC)cc2)cc1,23.1 µM (inactive),34.8 µM (inactive),7.94 µM (inactive),> 100 µM (inactive),15.3 µM (inactive),33 µM (inactive),46.3 µM (inactive),> 100 µM (inactive),> 100 µM (inactive),8.53 µM (inactive),54.7 µM (inactive),32.7 µM (inactive),36.4 µM (inactive),> 100 µM (inactive),27.9 µM (inactive),23.1 µM (inactive),> 100 µM (inactive),74.5 µM (inactive),
Cc1ccc(Cc2n[nH]c(=O)n2/N=C\CC/C=N\n2c(Cc3ccc(C)cc3)n[nH]c2=O)cc1,28.8 µM (inactive),> 100 µM (inactive),> 100 µM (inactive),28 µM (inactive),33.1 µM (inactive),,18 µM (inactive),33.3 µM (inactive),> 100 µM (inactive),26.9 µM (inactive),33.7 µM (inactive),96.8 µM (inactive),33.5 µM (inactive),57.4 µM (inactive),29.9 µM (inactive),> 100 µM (inactive),38.6 µM (inactive),> 100 µM (inactive),
